{"source": "paper PMC12332266", "about": "(Frontiers in Pharmacology, 2025)", "key": {"[1]": {"test_system": "hiPSC-CM (iCell Cardiomyocytes^2)", "assay": "Intracellular miRNA expression by RT-qPCR in hiPSC-CM pellets after 72-hour treatment", "details": "for fold induction at 0.1 µM / fold induction at 0.3 µM / fold induction at 1 µM / fold induction at 3 µM: Homo sapiens", "in_short": "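After 72-hour treatment and RTCA CardioECR assessment, total RNA from hiPSC-CM pellets was reverse transcribed, pre-amplified and quantified by TaqMan RT-qPCR against a 17-miRNA panel. Triplicates were pooled, so no statistical analysis was performed.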"}, "[2]": {"test_system": "hiPSC-CM (iCell Cardiomyocytes^2)", "assay": "RTCA CardioECR assessment (impedance and electrophysiology parameters)", "in_short": "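iCell^2 cardiomyocytes on fibronectin-coated ePlates monitored continuously by impedance for cell index, beating rate and amplitude. Field potential duration and spike amplitude were recorded from day 4–6 after monolayer formation. Data were double-normalized to DMSO control and baseline, with variability given as SD.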"}, "[3]": {"details": "ref extensive literature search, cited from earlier work"}, "[4]": {"details": "72 h, read-out: hsa-miR-7-5p fold change"}, "[5]": {"details": "72 h, read-out: hsa-miR-29a-5p fold change"}, "[6]": {"details": "72 h, read-out: hsa-miR-96-5p fold change"}, "[7]": {"details": "72 h, read-out: hsa-miR-126-3p fold change"}, "[8]": {"details": "72 h, read-out: hsa-miR-133b fold change"}, "[9]": {"details": "72 h, read-out: hsa-miR-146b-5p fold change"}, "[10]": {"details": "72 h, read-out: hsa-miR-182-5p fold change"}, "[11]": {"details": "72 h, read-out: hsa-miR-185-3p fold change"}, "[12]": {"details": "72 h, read-out: hsa-miR-187-3p fold change"}, "[13]": {"details": "72 h, read-out: hsa-miR-208b-3p fold change"}, "[14]": {"details": "72 h, read-out: hsa-miR-365a-5p fold change"}}, "note": "Where two headings read alike, the source gives them in different places."}
{"smiles": "C#Cc1cccc(Nc2ncnc3cc(OCCOC)c(OCCOC)cc23)c1", "note": "[Erlotinib]", "values": [{"measurement": "miRNAs hiPSC-CM pellet, MEC overall", "setting": "[1]", "result": 0.23, "unit": "µM"}, {"measurement": "miRNAs upregulated at the MEC overall (hiPSC-CM pellet)", "setting": "[1]", "result": "miR-1-3p, miR-21-5p, miR-34a-5p, miR-208b-3p"}, {"measurement": "intracellular miRNA upregulation in hiPSC-CM, in words", "setting": "[1]; human, 72 h", "result": "upregulation of three miRNAs (hsa-miR-146b-5p, hsa-miR-182-5p, hsa-miR-365a-5p)"}, {"measurement": "Beating Rate MEC", "setting": "[2]; human, 72 h", "result": 0.77, "unit": "µM"}, {"measurement": "Beating rate (BR) MEC", "setting": "[2]; human, 72 h", "result": 0.77, "unit": "µM"}, {"measurement": "RTCA, MEC (BR)", "setting": "[2]; human, 72 h", "result": "0.77 µM (BR)"}, {"measurement": "Spike Amplitude (SA) MEC", "setting": "[2]; human, 72 h", "result": 0.23, "unit": "µM"}, {"measurement": "Cmax total", "setting": "[3]; Supplementary Table 1", "result": "3150 to 4800", "unit": "nM"}, {"measurement": "Cmax total", "setting": "[3]; Table 1", "result": "3150 to 4800", "unit": "nM"}]}
{"smiles": "CCC1=C[C@@H]2CN(C1)Cc1c([nH]c3ccccc13)[C@@](C(=O)OC)(c1cc3c(cc1OC)N(C)[C@H]1[C@@](O)(C(=O)OC)[C@H](OC(C)=O)[C@]4(CC)C=CCN5CC[C@]31[C@@H]54)C2", "note": "[Vinorelbine]", "values": [{"measurement": "intracellular miRNA upregulation in hiPSC-CM, in words", "setting": "[1]", "result": "smallest fold change"}, {"measurement": "miRNAs hiPSC-CM pellet, MEC overall", "setting": "[1]", "result": 0.1, "unit": "µM"}, {"measurement": "miRNAs upregulated at the MEC overall (hiPSC-CM pellet)", "setting": "[1]", "result": "miR-34a-5p, miR-146b-5p"}, {"measurement": "fold induction at 0.1 µM", "setting": "[1]; [4]", "result": 1}, {"measurement": "fold induction at 0.3 µM", "setting": "[1]; [4]", "result": 1.4}, {"measurement": "fold induction at 1 µM", "setting": "[1]; [4]", "result": 0.9}, {"measurement": "fold induction at 3 µM", "setting": "[1]; [4]", "result": 1.8}, {"measurement": "fold induction at 0.1 µM", "setting": "[1]; [5]", "result": 0.4}, {"measurement": "fold induction at 0.3 µM", "setting": "[1]; [5]", "result": 1.1}, {"measurement": "fold induction at 1 µM", "setting": "[1]; [5]", "result": 0.2}, {"measurement": "fold induction at 3 µM", "setting": "[1]; [5]", "result": 0.9}, {"measurement": "fold induction at 0.1 µM", "setting": "[1]; [6]", "result": 1.3}, {"measurement": "fold induction at 0.3 µM", "setting": "[1]; [6]", "result": 4.8}, {"measurement": "fold induction at 1 µM", "setting": "[1]; [6]", "result": 0.9}, {"measurement": "fold induction at 0.1 µM", "setting": "[1]; [7]", "result": 1.4}, {"measurement": "fold induction at 0.3 µM", "setting": "[1]; [7]", "result": 2}, {"measurement": "fold induction at 1 µM", "setting": "[1]; [7]", "result": 0.6}, {"measurement": "fold induction at 3 µM", "setting": "[1]; [7]", "result": 0.2}, {"measurement": "fold induction at 0.1 µM", "setting": "[1]; [8]", "result": 0.1}, {"measurement": "fold induction at 0.3 µM", "setting": "[1]; [8]", "result": 0.2}, {"measurement": "fold induction at 1 µM", "setting": "[1]; [8]", "result": 0.3}, {"measurement": "fold induction at 3 µM", "setting": "[1]; [8]", "result": 0.1}, {"measurement": "fold induction at 0.1 µM", "setting": "[1]; [9]", "result": 3.1}, {"measurement": "fold induction at 0.3 µM", "setting": "[1]; [9]", "result": 1.1}, {"measurement": "fold induction at 1 µM", "setting": "[1]; [9]", "result": 0.1}, {"measurement": "fold induction at 3 µM", "setting": "[1]; [9]", "result": 0.2}, {"measurement": "fold induction at 0.1 µM", "setting": "[1]; [10]", "result": 0.7}, {"measurement": "fold induction at 1 µM", "setting": "[1]; [10]", "result": 0.1}, {"measurement": "fold induction at 0.1 µM", "setting": "[1]; [11]", "result": 1.2}, {"measurement": "fold induction at 0.3 µM", "setting": "[1]; [11]", "result": 1.9}, {"measurement": "fold induction at 1 µM", "setting": "[1]; [11]", "result": 0.9}, {"measurement": "fold induction at 3 µM", "setting": "[1]; [11]", "result": 0.6}, {"measurement": "fold induction at 0.1 µM", "setting": "[1]; [12]", "result": 1.1}, {"measurement": "fold induction at 0.3 µM", "setting": "[1]; [12]", "result": 0.9}, {"measurement": "fold induction at 1 µM", "setting": "[1]; [12]", "result": 0.8}, {"measurement": "fold induction at 3 µM", "setting": "[1]; [12]", "result": 0.3}, {"measurement": "fold induction at 0.1 µM", "setting": "[1]; [13]", "result": 0.8}, {"measurement": "fold induction at 0.3 µM", "setting": "[1]; [13]", "result": 1.7}, {"measurement": "fold induction at 1 µM", "setting": "[1]; [13]", "result": 0.7}, {"measurement": "fold induction at 3 µM", "setting": "[1]; [13]", "result": 0.8}, {"measurement": "fold induction at 0.3 µM", "setting": "[1]; [14]", "result": 2.4}, {"measurement": "fold induction at 1 µM", "setting": "[1]; [14]", "result": 0.1}, {"measurement": "Cell index (CI) MEC", "setting": "[2]; hiPSC-CM, 72-hour treatment, lowest concentration causing at least 20% change from baseline", "result": 0.1, "unit": "µM"}, {"measurement": "RTCA, MEC (CI)", "setting": "[2]; hiPSC-CM, change ≥20%, Table 2", "result": 0.1, "unit": "µM"}, {"measurement": "Beating Rate MEC", "setting": "[2]; human, 72 h", "result": 1, "unit": "µM"}, {"measurement": "Beating rate (BR) MEC", "setting": "[2]; human, 72 h", "result": 1, "unit": "µM"}, {"measurement": "Cell Index MEC", "setting": "[2]; human, 72 h", "result": 0.1, "unit": "µM"}, {"measurement": "Contractility Amplitude MEC", "setting": "[2]; human, 72 h", "result": 0.1, "unit": "µM"}, {"measurement": "Field Potential Duration MEC", "setting": "[2]; human, 72 h", "result": 1, "unit": "µM"}, {"measurement": "RTCA, MEC (BR)", "setting": "[2]; human, 72 h", "result": 1, "unit": "µM"}, {"measurement": "Spike Amplitude (SA) MEC", "setting": "[2]; human, 72 h", "result": 0.1, "unit": "µM"}, {"measurement": "Cmax total", "setting": "[3]; Supplementary Table 1", "result": 811, "unit": "nM"}, {"measurement": "Cmax total", "setting": "[3]; Table 1", "result": 810, "unit": "nM"}]}
